Reference: patent US4360665A, “4"-N-(Substituted)-apramycin antibiotic derivatives and intermediates therefor” (Eli Lilly and Company, priority 1981, dated 1982)
Like-named read-outs stand apart in the source and are kept apart here.

Assays:
[1] = tested on: Staphlyococcus aureus 3055; experiment: Subcutaneous therapy of experimental bacterial infection in mice; assay type: in vivo; conditions: Mus musculus, sc, subcutaneous doses at 1 and 5 hours postinfection, read-out: Effective Dose (ED50), dose to protect 50 percent of the test animals
Experimental: Table III illustrates the effective dose (ED50, effective dose to protect 50 percent of the test animals) for a representative compound of this invention against an experimental bacterial infection in mice. | *mg/kg × 2 subcutaneous doses at 1 and 5 hours postinfection The ED50 value was determined as described by W. E. Wick et al., Journal of Bacteriology, 81 [No. 2], 233-235 (1961).

[2] = tested on: Bordetella bronchiseptica 16; experiment: MIC by standard agar dilution test; assay type: cell-based; conditions: Bordetella bronchiseptica, 16, read-out: Minimum Inhibitory Concentration
Description: (§1) The antibacterial activity of the antibiotic compounds of this invention is illustrated by the following in vitro and in vivo test data obtained with representative compounds. In Tables I and II, the minimum inhibitory concentration (MIC) for representative compounds against a wide range of gram-positive and gram-negative bacteria are presented. The MIC values were obtained by the standard agar dilution test.

Proteus inconstans PV25 = experiment: MIC by standard agar dilution test; assay type: cell-based; conditions: Providencia alcalifaciens, Table II, read-out: Minimum Inhibitory Concentration
Description: as §1

[3] = tested on: Enterobacter cloacae EN453; experiment: MIC by standard agar dilution test; assay type: cell-based; conditions: Table II, read-out: Minimum Inhibitory Concentration
Description: as §1

Escherichia coli N10 = experiment: MIC by standard agar dilution test; assay type: cell-based; conditions: Table 1, read-out: Minimum Inhibitory Concentration
Description: as §1

[4] = tested on: Pseudomonas aeruginosa Ps18; experiment: MIC by standard agar dilution test; assay type: cell-based; conditions: Table 1; Pseudomonas aeruginosa Ps18; agar dilution; read-out: Minimum Inhibitory Concentration
Description: as §1

[5] = tested on: Enterobacter aerogenes EB6; experiment: MIC by standard agar dilution test; assay type: cell-based; conditions: Klebsiella aerogenes; Table II; Enterobacter aerogenes EB6; agar dilution; read-out: Minimum Inhibitory Concentration
Description: as §1

[6] = tested on: Pseudomonas aeruginosa Ps15; experiment: MIC by standard agar dilution test; assay type: cell-based; conditions: Table II, read-out: Minimum Inhibitory Concentration
Description: as §1

[7] = tested on: Staphylococcus epidermidis EPI2; experiment: MIC by standard agar dilution test; assay type: cell-based; conditions: Table 1, read-out: Minimum Inhibitory Concentration
Description: as §1

[8] = tested on: Klebsiella pneumoniae KAE; experiment: MIC by standard agar dilution test; assay type: cell-based; conditions: Table 1, read-out: Minimum Inhibitory Concentration
Description: as §1

[9] = tested on: Salmonella typhimurium 1335; experiment: MIC by standard agar dilution test; assay type: cell-based; conditions: Salmonella enterica, Table 1, read-out: Minimum Inhibitory Concentration
Description: as §1

Escherichia coli TEM = experiment: MIC by standard agar dilution test; assay type: cell-based; conditions: read-out: Minimum Inhibitory Concentration
Description: as §1

[10] = tested on: Pseudomonas aeruginosa 4276; experiment: MIC by standard agar dilution test; assay type: cell-based; conditions: Table II, read-out: Minimum Inhibitory Concentration
Description: as §1

[11] = tested on: Enterobacter cloacae EB24; experiment: MIC by standard agar dilution test; assay type: cell-based; conditions: Table II; Enterobacter cloacae EB24; agar dilution; read-out: Minimum Inhibitory Concentration
Description: as §1

[12] = tested on: Haemophilus influenzae R252; experiment: MIC by standard agar dilution test; assay type: cell-based; conditions: Table 1; Haemophilus influenzae R252; agar dilution; read-out: Minimum Inhibitory Concentration
Description: as §1

[13] = tested on: Enterobacter aerogenes C32; experiment: MIC by standard agar dilution test; assay type: cell-based; conditions: Klebsiella aerogenes, Table 1, read-out: Minimum Inhibitory Concentration
Description: as §1

Proteus rettgeri C24 = experiment: MIC by standard agar dilution test; assay type: cell-based; conditions: Providencia rettgeri, Table 1, read-out: Minimum Inhibitory Concentration
Description: as §1

Proteus rettgeri PR2 = experiment: MIC by standard agar dilution test; assay type: cell-based; conditions: Providencia rettgeri, Table II, read-out: Minimum Inhibitory Concentration
Description: as §1

[14] = tested on: Streptococcus group D 9960; experiment: MIC by standard agar dilution test; assay type: cell-based; conditions: D9960, Table 1, read-out: Minimum Inhibitory Concentration
Description: as §1

[15] = tested on: Staphylococcus aureus X1.1; experiment: MIC by standard agar dilution test; assay type: cell-based; conditions: Table 1, read-out: Minimum Inhibitory Concentration
Description: as §1

[16] = tested on: Streptococcus pyogenes C203; experiment: MIC by standard agar dilution test; assay type: cell-based; conditions: Table 1, read-out: Minimum Inhibitory Concentration
Description: as §1

Serratia marcescens X99 = experiment: MIC by standard agar dilution test; assay type: cell-based
Description: as §1

[17] = tested on: Staphylococcus aureus V41; experiment: MIC by standard agar dilution test; assay type: cell-based; conditions: Table 1, read-out: Minimum Inhibitory Concentration
Description: as §1

[18] = tested on: Pseudomonas aeruginosa Ps9; experiment: MIC by standard agar dilution test; assay type: cell-based; conditions: Table II, read-out: Minimum Inhibitory Concentration
Description: as §1

Serratia marcescens SE2 = experiment: MIC by standard agar dilution test; assay type: cell-based; conditions: Table II, read-out: Minimum Inhibitory Concentration
Description: as §1

Enterobacter cloacae EB5 = experiment: MIC by standard agar dilution test; assay type: cell-based; conditions: Table 1, read-out: Minimum Inhibitory Concentration
Description: as §1

[19] = tested on: Pseudomonas aeruginosa SF-2; experiment: MIC by standard agar dilution test; assay type: cell-based; conditions: SF2, Table II, read-out: Minimum Inhibitory Concentration
Description: as §1

[20] = tested on: Pseudomonas aeruginosa Ps25; experiment: MIC by standard agar dilution test; assay type: cell-based; conditions: Table II, read-out: Minimum Inhibitory Concentration
Description: as §1

[21] = tested on: Salmonella heidelberg X514; experiment: MIC by standard agar dilution test; assay type: cell-based; conditions: Salmonella enterica, Table 1, read-out: Minimum Inhibitory Concentration
Description: as §1

[22] = tested on: Enterobacter aerogenes X68; experiment: MIC by standard agar dilution test; assay type: cell-based; conditions: Klebsiella aerogenes, Table 1, read-out: Minimum Inhibitory Concentration
Description: as §1

[23] = tested on: Streptococcus group D X66; experiment: MIC by standard agar dilution test; assay type: cell-based; conditions: DX66, Table 1, read-out: Minimum Inhibitory Concentration
Description: as §1

Proteus morganii PR15 = experiment: MIC by standard agar dilution test; assay type: cell-based; conditions: Morganella morganii, Table 1, read-out: Minimum Inhibitory Concentration
Description: as §1

[24] = tested on: Enterobacter aerogenes EB17; experiment: MIC by standard agar dilution test; assay type: cell-based; conditions: Klebsiella aerogenes, Table 1, read-out: Minimum Inhibitory Concentration
Description: as §1

[25] = tested on: Pseudomonas aeruginosa X48; experiment: MIC by standard agar dilution test; assay type: cell-based; conditions: Table II, read-out: Minimum Inhibitory Concentration
Description: as §1

Proteus rettgeri PR7 = experiment: MIC by standard agar dilution test; assay type: cell-based; conditions: Providencia rettgeri, Table 1, read-out: Minimum Inhibitory Concentration
Description: as §1

Escherichia coli EC14 = experiment: MIC by standard agar dilution test; assay type: cell-based; conditions: Table 1, read-out: Minimum Inhibitory Concentration
Description: as §1

[26] = tested on: Haemophilus influenzae HOLT; experiment: MIC by standard agar dilution test; assay type: cell-based; conditions: Table 1, read-out: Minimum Inhibitory Concentration
Description: as §1

Shigella sonnei N9 = experiment: MIC by standard agar dilution test; assay type: cell-based; conditions: Table 1, read-out: Minimum Inhibitory Concentration
Description: as §1

[27] = tested on: Staphylococcus aureus S13E; experiment: MIC by standard agar dilution test; assay type: cell-based; conditions: read-out: Minimum Inhibitory Concentration
Description: as §1

Serratia marcescens SE3 = experiment: MIC by standard agar dilution test; assay type: cell-based
Description: as §1

[28] = tested on: Streptococcus pneumoniae Park 1; experiment: MIC by standard agar dilution test; assay type: cell-based; conditions: PARK1, Table 1, read-out: Minimum Inhibitory Concentration
Description: as §1

[29] = tested on: Klebsiella pneumoniae X26; experiment: MIC by standard agar dilution test; assay type: cell-based; conditions: Table 1, read-out: Minimum Inhibitory Concentration
Description: as §1

[30] = tested on: Pseudomonas aeruginosa X239; experiment: MIC by standard agar dilution test; assay type: cell-based
Description: as §1

[31] = tested on: Pseudomonas aeruginosa PI23; experiment: MIC by standard agar dilution test; assay type: cell-based; conditions: Table II, read-out: Minimum Inhibitory Concentration
Description: as §1

[32] = tested on: Enterobacter cloacae 265A; experiment: MIC by standard agar dilution test; assay type: cell-based; conditions: Table 1, read-out: Minimum Inhibitory Concentration
Description: as §1

[33] = tested on: Klebsiella pneumoniae KL2; experiment: MIC by standard agar dilution test; assay type: cell-based; conditions: Table II, read-out: Minimum Inhibitory Concentration
Description: as §1

Proteus morganii PR1 = experiment: MIC by standard agar dilution test; assay type: cell-based; conditions: Morganella morganii, Table II, read-out: Minimum Inhibitory Concentration
Description: as §1

Proteus inconstans PR33 = experiment: MIC by standard agar dilution test; assay type: cell-based; conditions: Providencia alcalifaciens, Table 1, read-out: Minimum Inhibitory Concentration
Description: as §1

[34] = tested on: Pseudomonas aeruginosa X528; experiment: MIC by standard agar dilution test; assay type: cell-based
Description: as §1

[35] = tested on: Citrobacter freundii CF17; experiment: MIC by standard agar dilution test; assay type: cell-based; conditions: Table 1, read-out: Minimum Inhibitory Concentration
Description: as §1

[36] = tested on: Staphylococcus epidermidis EPI1; experiment: MIC by standard agar dilution test; assay type: cell-based; conditions: Table 1, read-out: Minimum Inhibitory Concentration
Description: as §1

[37] = tested on: Staphylococcus aureus X400; experiment: MIC by standard agar dilution test; assay type: cell-based; conditions: Table 1, read-out: Minimum Inhibitory Concentration
Description: as §1

CN[C@@H]1[C@@H](O[C@H]2O[C@H](CO)[C@@H](NC(C)=O)[C@H](O)[C@H]2O)O[C@H]2C[C@@H](N)[C@@H](O[C@H]3[C@H](O)[C@@H](O)[C@H](N)C[C@@H]3N)O[C@@H]2[C@@H]1O [Test Compound 1, 4"-N-Acetylapramycin]
128 µg/mL: MIC [2] | MIC [18] | MIC [28] | MIC [37]
16 µg/mL: MIC [4] | MIC [8] | MIC (Escherichia coli TEM) | MIC [12] | MIC [13] | MIC (Serratia marcescens X99; X99, Table 1, read-out: Minimum Inhibitory Concentration) | MIC [22] | MIC [24] | MIC (Escherichia coli EC14) | MIC [26] | MIC [29] | MIC (Proteus inconstans PR33)
64 µg/mL: MIC [7] | MIC [17] | MIC [19] | MIC [27] | MIC ([30]; X239, Table 1, read-out: Minimum Inhibitory Concentration) | Minimum Inhibitory Concentration ([34]; Table 1) | MIC ([34]; Table II, read-out: Minimum Inhibitory Concentration)
9.4 mg/kg: ED50 [1]
4 µg/mL: MIC (Serratia marcescens X99; X99, Table II, read-out: Minimum Inhibitory Concentration)
8 µg/mL: MIC (Proteus inconstans PV25) | MIC [3] | MIC [5] | MIC [11] | MIC (Serratia marcescens SE2) | MIC (Serratia marcescens SE3; SE3, Table II, read-out: Minimum Inhibitory Concentration) | MIC [33] | MIC (Proteus morganii PR1)
> 128 µg/mL: MIC [14] | MIC [16] | MIC [23] | MIC [31]
32 µg/mL: MIC (Escherichia coli N10) | MIC [6] | MIC [9] | MIC [10] | MIC (Proteus rettgeri C24) | MIC (Proteus rettgeri PR2) | MIC [15] | MIC (Enterobacter cloacae EB5) | MIC [20] | MIC [21] | MIC (Proteus morganii PR15) | MIC [25] | MIC (Proteus rettgeri PR7) | MIC (Shigella sonnei N9) | MIC (Serratia marcescens SE3; SE3, Table 1, read-out: Minimum Inhibitory Concentration) | MIC ([30]; X239, Table II, read-out: Minimum Inhibitory Concentration) | MIC [32] | MIC [35] | MIC [36]
